Experimental data reported in US6617118B2, “Monoclonal antibody for analysis and clearance of polyethylene glycol and polyethylene glycol-modified molecules” (priority 1999, dated 2003).

How the values were obtained:
LS174T cells = assay: Drug sensitivity of LS174T cells ([3H]-leucine incorporation); settings: BHAMG plus 1 μg/well βG, 24 h
LS174T tumor xenografts = assay: Therapy of LS174T tumor xenografts
Method: Therapy of LS174T Tumor Xenografts: Groups of 9 BALB/c nu/nu mice were s.c. injected on the right flank with 5×10^6 LS174T cells on day 1. […] 48 and 50 h later mice were i.v. injected with 2 sequential doses of 300 and 200 μg AGP3. […] Therapy was repeated starting on days 16, 26, and 41. All mice received 2-4 rounds of therapy. Tumor volumes (length×width×height×0.5) were measured twice a week and mice weight was followed as an estimate of treatment toxicity. […] Groups of 8 BALB/c nu/nu mice bearing larger 200-250 mm^3 tumors were also treated as above with 2 rounds of therapy starting on days 11 and 23.
Therapy was repeated starting on days 16, 26 and 41. […] Bars indicate the standard error of the mean. […] Soluble IgM immune complexes are primarily removed from the circulation and catabolized by the mononuclear phagocyte system in the liver, spleen and lungs by receptor-mediated binding of high mannose oligosaccharides exposed upon conformational changes in IgM induced by antigen binding (Day et al., 1980).

[1] = Toxicity of clearance and BHAMG prodrug administration; format: in vivo, BALB/c mice; settings: AGP3 and 15 mg/kg BHAMG, no βG-sPEG
Method: Toxicity of Clearance: The numbers of WBC, RBC, and PLT in groups of 6 BALB/c mice were measured as described (Chen et al., 1997) 1 day before i.v. injection of 50 μg of βG-PEG or PBS. […] On day 8, the numbers of WBC, RBC, and PLT in […] samples were determined. On days 3 and 10, the spleen, liver and kidney were removed from one mouse in each group and fixed in 10% formalin. Ethanol dehydrated samples were embedded in paraffin and cut into 3 μm sections. Sections were then dewaxed with xylene, stained with hematoxylin/eosin, and dehydrated before observation under a light microscope. The weight of mice was followed for 18 days.
One concern of employing IgM to clear proteins is that the immune complexes could be deposited in organs and cause tissue damage. In addition, deposition of βG-PEG on the surface of cells could result in prodrug activation and tissue toxicity. […] Mice were injected with PBS (A-C) or βG-sPEG (D-F) on day 1. […] Tissue sections of liver (A, D), kidney (B, E), and spleen (C, F) recovered 10 days later were stained with hematoxylin and eosin. […] Similarly, no tissue damage was observed 3 days after prodrug administration (results not shown).
Groups of 4 mice were i.v. injected at time zero with PBS (control) or βG-sPEG. […] Six hours later, all mice were i.v. injected with BHAMG. […]

In the case of `O=C(O)[C@H]1O[C@@H](Oc2ccc(N(CCCl)CCCl)cc2)[C@H](O)[C@@H](O)[C@@H]1O` [BHAMG], the “cytotoxic effect with simultaneous addition of βG” value (LS174T cells) is reported as “cytotoxic effect equal to pHAM alone”, the Weight loss % (LS174T tumor xenografts; Round of therapy 1) is reported as 1.7% and the Weight loss % (LS174T tumor xenografts; Round of therapy 2) is reported as 4.0%. The Weight loss % (LS174T tumor xenografts; Round of therapy 3) was 1.7% and the “weight of mice, control group” value [1] was “only a small transient decrease”.
